The results in this text go back to patent US12522602B2, “Derivatives having 2,3-dihydro-1H-indene or 2,3-dihydrobenzofuran moiety or pharmaceutically acceptable salt thereof and pharmaceutical compositions comprising the same” (YUHAN CORPORATION, priority 2019, dated 2026).

The test system of the assay is GM1 production in Jurkat cells. Nature of the assay: cells. It counts as cell-based. As to conditions: Homo sapiens, Jurkat, 72 h.

Regarding `CC1(C)Cc2cc(-c3cccc(C(F)F)c3)ccc2C1NC(=O)O[C@@H]1CN2CCC1CC2` (stereo partly drawn) [Example 155, (S)-quinuclidin-3-yl (5-(3-(difluoromethyl)phenyl)-2,2-dimethyl-2,3-dihydro-1H-inden-1-yl)carbamate], the 50% inhibitory concentration (IC50) came to 0.0084 µM.

The compound `CC1(C)Cc2cc(-c3cccc4cccnc34)ccc2C1NC(=O)O[C@@H]1CN2CCC1CC2` (stereo partly drawn) [Example 156, (S)-quinuclidin-3-yl (2,2-dimethyl-5-(quinolin-8-yl)-2,3-dihydro-1H-inden-1-yl)carbamate] returned a 50% inhibitory concentration (IC50) of 0.0467 µM.

`CC1(C)Cc2cc(-c3coc4ccccc34)ccc2C1NC(=O)O[C@@H]1CN2CCC1CC2` (stereo partly drawn) [Example 157, (S)-quinuclidin-3-yl (5-(benzofuran-3-yl)-2,2-dimethyl-2,3-dihydro-1H-inden-1-yl)carbamate]: 0.0028 µM corresponded to half-maximal inhibition (IC50).

`CC1(C)Cc2cc(-c3cc4ccccc4o3)ccc2C1NC(=O)O[C@@H]1CN2CCC1CC2` (stereo partly drawn) [Example 158, (S)-quinuclidin-3-yl (5-(benzofuran-2-yl)-2,2-dimethyl-2,3-dihydro-1H-inden-1-yl)carbamate] registered a 50% inhibitory concentration (IC50) of 0.0171 µM. Against the preceding compound, the IC50 is about 6.1-fold higher.

`COc1ccc(-c2ccc3c(c2)CC(C)(C)C3NC(=O)O[C@@H]2CN3CCC2CC3)cc1` (stereo partly drawn) [Example 159, (S)-quinuclidin-3-yl (5-(4-methoxyphenyl)-2,2-dimethyl-2,3-dihydro-1H-inden-1-yl)carbamate] displayed a half-maximal inhibitory concentration (IC50) of 0.0127 µM.

Turning to `CCOc1ccc(-c2ccc3c(c2)CC(C)(C)C3NC(=O)O[C@@H]2CN3CCC2CC3)cc1` (stereo partly drawn) [Example 160, (S)-quinuclidin-3-yl (5-(4-ethoxyphenyl)-2,2-dimethyl-2,3-dihydro-1H-inden-1-yl)carbamate], the concentration for half-maximal inhibition (IC50) was 0.0227 µM.

Regarding `CC(C)Cc1ccc(-c2ccc3c(c2)CC(C)(C)C3NC(=O)O[C@@H]2CN3CCC2CC3)cc1` (stereo partly drawn) [Example 161, (S)-quinuclidin-3-yl (5-(4-isobutylphenyl)-2,2-dimethyl-2,3-dihydro-1H-inden-1-yl)carbamate], 0.0108 µM corresponded to half-maximal inhibition (IC50).

In the case of `COc1c(Cl)ccc(-c2ccc3c(c2)CC(C)(C)C3NC(=O)O[C@@H]2CN3CCC2CC3)c1Cl` (stereo partly drawn) [Example 162, (S)-quinuclidin-3-yl (5-(2,4-dichloro-3-methoxyphenyl)-2,2-dimethyl-2,3-dihydro-1H-inden-1-yl)carbamate], the IC50 stood at 0.0388 µM.

The compound `CCCc1ccc(-c2ccc3c(c2)CC(C)(C)C3NC(=O)O[C@@H]2CN3CCC2CC3)cc1` (stereo partly drawn) [Example 163, (S)-quinuclidin-3-yl (2,2-dimethyl-5-(4-propylphenyl)-2,3-dihydro-1H-inden-1-yl)carbamate] registered an IC50 of 0.0122 µM. Compared with the last compound, the IC50 is about 3.2-fold lower.

`CCCCc1ccc(-c2ccc3c(c2)CC(C)(C)C3NC(=O)O[C@@H]2CN3CCC2CC3)cc1` (stereo partly drawn) [Example 164, (S)-quinuclidin-3-yl (5-(4-butylphenyl)-2,2-dimethyl-2,3-dihydro-1H-inden-1-yl)carbamate] registered a half-inhibitory concentration (IC50) of 0.0065 µM.

`COc1cccc(-c2ccc3c(c2)CC(C)(C)C3NC(=O)O[C@@H]2CN3CCC2CC3)c1OC` (stereo partly drawn) [Example 165, (S)-quinuclidin-3-yl (5-(2,3-dimethoxyphenyl)-2,2-dimethyl-2,3-dihydro-1H-inden-1-yl)carbamate] came in with an IC50 of 0.0156 µM. Compared with the last compound, the IC50 is about 2.4-fold higher.

Regarding `COc1ccc(-c2ccc3c(c2)CC(C)(C)C3NC(=O)O[C@@H]2CN3CCC2CC3)c(OC)c1` (stereo partly drawn) [Example 166, (S)-quinuclidin-3-yl (5-(2,4-dimethoxyphenyl)-2,2-dimethyl-2,3-dihydro-1H-inden-1-yl)carbamate], half-maximal inhibition (IC50) was put at 0.0263 µM.

`COc1ccc(OC)c(-c2ccc3c(c2)CC(C)(C)C3NC(=O)O[C@@H]2CN3CCC2CC3)c1` (stereo partly drawn) [Example 167, (S)-quinuclidin-3-yl (5-(2,5-dimethoxyphenyl)-2,2-dimethyl-2,3-dihydro-1H-inden-1-yl)carbamate]: the concentration for half-maximal inhibition (IC50) is 0.0038 µM. This IC50 lies about 6.9-fold lower than the previous one.

In turn, `COc1cccc(OC)c1-c1ccc2c(c1)CC(C)(C)C2NC(=O)O[C@@H]1CN2CCC1CC2` (stereo partly drawn) [Example 168, (S)-quinuclidin-3-yl (5-(2,6-dimethoxyphenyl)-2,2-dimethyl-2,3-dihydro-1H-inden-1-yl)carbamate] displayed an IC50 of 0.0096 µM.

Compound `COc1cc(OC)cc(-c2ccc3c(c2)CC(C)(C)C3NC(=O)O[C@@H]2CN3CCC2CC3)c1` (stereo partly drawn) [Example 169, (S)-quinuclidin-3-yl (5-(3,5-dimethoxyphenyl)-2,2-dimethyl-2,3-dihydro-1H-inden-1-yl)carbamate] displayed a half-inhibitory concentration (IC50) of 0.0098 µM.

`CCOc1ccc(-c2ccc3c(c2)CC(C)(C)C3NC(=O)O[C@@H]2CN3CCC2CC3)cc1C(F)(F)F` (stereo partly drawn) [Example 170, (S)-quinuclidin-3-yl (5-(4-ethoxy-3-(trifluoromethyl)phenyl)-2,2-dimethyl-2,3-dihydro-1H-inden-1-yl)carbamate]: it took 0.013 µM to reach half-maximal inhibition (IC50).

Consider `COc1cc(F)c(-c2ccc3c(c2)CC(C)(C)C3NC(=O)O[C@@H]2CN3CCC2CC3)cc1F` (stereo partly drawn) [Example 171, (S)-quinuclidin-3-yl (5-(2,5-difluoro-4-methoxyphenyl)-2,2-dimethyl-2,3-dihydro-1H-inden-1-yl)carbamate], for which the IC50 amounted to 0.017 µM.

Compound `CC(C)Oc1ccc(F)c(-c2ccc3c(c2)CC(C)(C)C3NC(=O)O[C@@H]2CN3CCC2CC3)c1` (stereo partly drawn) [Example 172, (S)-quinuclidin-3-yl (5-(2-fluoro-5-isopropoxyphenyl)-2,2-dimethyl-2,3-dihydro-1H-inden-1-yl)carbamate] returned a half-inhibitory concentration (IC50) of 0.0485 µM. Compared with the last compound, the IC50 is about 2.9-fold higher.

In the case of `CCCOc1c(C)cc(-c2ccc3c(c2)CC(C)(C)C3NC(=O)O[C@@H]2CN3CCC2CC3)cc1C` (stereo partly drawn) [Example 173, (S)-quinuclidin-3-yl (5-(3,5-dimethyl-4-propoxyphenyl)-2,2-dimethyl-2,3-dihydro-1H-inden-1-yl)carbamate], the concentration for half-maximal inhibition (IC50) was 0.0348 µM.

Take `CCOc1c(C)cc(-c2ccc3c(c2)CC(C)(C)C3NC(=O)O[C@@H]2CN3CCC2CC3)cc1C` (stereo partly drawn) [Example 174, (S)-quinuclidin-3-yl (5-(4-ethoxy-3,5-dimethylphenyl)-2,2-dimethyl-2,3-dihydro-1H-inden-1-yl)carbamate]: 0.0402 µM corresponded to half-maximal inhibition (IC50).

As to `CCc1ccccc1-c1ccc2c(c1)CC(C)(C)C2NC(=O)O[C@@H]1CN2CCC1CC2` (stereo partly drawn) [Example 175, (S)-quinuclidin-3-yl (5-(2-ethylphenyl)-2,2-dimethyl-2,3-dihydro-1H-inden-1-yl)carbamate], inhibition was half-maximal at 0.0428 µM (IC50). The IC50 values of the last two compounds are within 1.5-fold of each other.

`COc1ccccc1-c1ccc2c(c1)CC(C)(C)C2NC(=O)O[C@@H]1CN2CCC1CC2` (stereo partly drawn) [Example 176, (S)-quinuclidin-3-yl (5-(2-methoxyphenyl)-2,2-dimethyl-2,3-dihydro-1H-inden-1-yl)carbamate] yielded an IC50 of 0.0276 µM.

`CCOc1ccccc1-c1ccc2c(c1)CC(C)(C)C2NC(=O)O[C@@H]1CN2CCC1CC2` (stereo partly drawn) [Example 177, (S)-quinuclidin-3-yl (5-(2-ethoxyphenyl)-2,2-dimethyl-2,3-dihydro-1H-inden-1-yl)carbamate] yielded a half-inhibitory concentration (IC50) of 0.0229 µM.

Compound `CC1(C)Cc2cc(-c3cc(OC(F)(F)F)ccc3Cl)ccc2C1NC(=O)O[C@@H]1CN2CCC1CC2` (stereo partly drawn) [Example 178, (S)-quinuclidin-3-yl (5-(2-chloro-5-(trifluoromethoxy)phenyl)-2,2-dimethyl-2,3-dihydro-1H-inden-1-yl)carbamate] showed an IC50 of 0.0269 µM.

Compound `COc1cc(F)ccc1-c1ccc2c(c1)CC(C)(C)C2NC(=O)O[C@@H]1CN2CCC1CC2` (stereo partly drawn) [Example 179, (S)-quinuclidin-3-yl (5-(4-fluoro-2-methoxyphenyl)-2,2-dimethyl-2,3-dihydro-1H-inden-1-yl)carbamate] showed a concentration for half-maximal inhibition (IC50) of 0.041 µM.

The compound `COc1ccc(-c2ccc3c(c2)CC(C)(C)C3NC(=O)O[C@@H]2CN3CCC2CC3)c(C)c1` (stereo partly drawn) [Example 180, (S)-quinuclidin-3-yl (5-(4-methoxy-2-methylphenyl)-2,2-dimethyl-2,3-dihydro-1H-inden-1-yl)carbamate] showed an IC50 of 0.0281 µM.

As for `CC(C)(C)OCc1ccc(-c2ccc3c(c2)CC(C)(C)C3NC(=O)O[C@@H]2CN3CCC2CC3)cc1` (stereo partly drawn) [Example 181, (S)-quinuclidin-3-yl (5-(4-(tert-butoxymethyl)phenyl)-2,2-dimethyl-2,3-dihydro-1H-inden-1-yl)carbamate], the midpoint of inhibition, the IC50, lay at 0.0055 µM.

As to `CC1(C)Cc2cc(-c3cccc(C(F)(F)F)c3Cl)ccc2C1NC(=O)O[C@@H]1CN2CCC1CC2` (stereo partly drawn) [Example 182, (S)-quinuclidin-3-yl (5-(2-chloro-3-(trifluoromethyl)phenyl)-2,2-dimethyl-2,3-dihydro-1H-inden-1-yl)carbamate], the IC50 came to 0.0209 µM.

`CC1(C)Cc2cc(-c3ccc(C(F)(F)F)cc3Cl)ccc2C1NC(=O)O[C@@H]1CN2CCC1CC2` (stereo partly drawn) [Example 183, (S)-quinuclidin-3-yl (5-(2-chloro-4-(trifluoromethyl)phenyl)-2,2-dimethyl-2,3-dihydro-1H-inden-1-yl)carbamate] registered a 50% inhibitory concentration (IC50) of 0.0186 µM.

Turning to `COc1ccc(-c2ccc3c(c2)CC(C)(C)C3NC(=O)O[C@@H]2CN3CCC2CC3)c(OC)n1` (stereo partly drawn) [Example 184, (S)-quinuclidin-3-yl (5-(2,6-dimethoxypyridin-3-yl)-2,2-dimethyl-2,3-dihydro-1H-inden-1-yl)carbamate], half-maximal inhibition (IC50) was put at 0.04 µM.

The compound `CC1(C)Cc2cc(-c3ccc(OCC4CC4)nc3)ccc2C1NC(=O)O[C@@H]1CN2CCC1CC2` (stereo partly drawn) [Example 185, (S)-quinuclidin-3-yl (5-(6-(cyclopropylmethoxy)pyridin-3-yl)-2,2-dimethyl-2,3-dihydro-1H-inden-1-yl)carbamate] had a half-maximal inhibitory concentration (IC50) of 0.0111 µM.

In turn, `CC1(C)Cc2cc(-c3cc4ccccc4s3)ccc2C1NC(=O)O[C@@H]1CN2CCC1CC2` (stereo partly drawn) [Example 186, (S)-quinuclidin-3-yl (5-(benzo[b]thiophen-2-yl)-2,2-dimethyl-2,3-dihydro-1H-inden-1-yl)carbamate] showed an IC50 of 0.0826 µM.

Take `CC(C)(C)Oc1cc(-c2ccc3c(c2)CC(C)(C)C3NC(=O)O[C@@H]2CN3CCC2CC3)ccn1` (stereo partly drawn) [Example 187, (S)-quinuclidin-3-yl (5-(2-(tert-butoxy)pyridin-4-yl)-2,2-dimethyl-2,3-dihydro-1H-inden-1-yl)carbamate]: the IC50 stood at 0.0317 µM. This IC50 is about 2.6-fold lower than that of the compound before.

Regarding `COc1ncc(-c2ccc3c(c2)CC(C)(C)C3NC(=O)O[C@@H]2CN3CCC2CC3)cc1C(F)(F)F` (stereo partly drawn) [Example 188, (S)-quinuclidin-3-yl (5-(6-methoxy-5-(trifluoromethyl)pyridin-3-yl)-2,2-dimethyl-2,3-dihydro-1H-inden-1-yl)carbamate], the IC50 worked out at 0.0462 µM.

The IC50 is the concentration that inhibits the measured activity by half. Read a low IC50 as higher potency.
